Reference: patent US20060106078A1, “Prostamide receptor antagonists” (Allergan, Inc., priority 2003, published 2006)

Tests used:
Assay type in all cases: cell-based
[1] = tested on: cat iris sphincter (PGF2α response); test: Cat iris sphincter contraction: effect on PGF2α response; conditions: isolated cat iris sphincter, contractile response relative to 1×10^−7 M PGF2α, 30 min antagonist incubation; FIG. 1, FIG. 2
Experimental: (§1) The compounds of Examples 1 and 2 were tested for prostamide antagonist activity as follows:
(§2) The smooth muscle tension of isolated tissue preparations was measured isometrically with force displacement transducers (Grass FT-03) and recorded on a Grass polygraph (Model 7G). The organ baths contained Krebs solution maintained at 37° C. and gassed with 95% O2: 5% CO2 to give a pH of 7.4. The Krebs solution had the following composition (mM): NaCl, 118.0; KCl, 4.7; KH2PO4, 1.2; CaCl2, 1.9; MgSO4, 1.18; NaHCO3, 25.0; glucose, 11.7; indomethacin, 0.001.
(§3) Adult domestic cats were sacrificed by intravenous overdose of sodium pentobarbitol (Anthony, Arcadia, Calif., USA). The eyes were enucleated immediately and placed on ice. The iris sphincter from each eye was dissected to provide two strips ˜3 mm wide and 15-20 mm long. The sphincter muscle was mounted vertically under 50 mg tension in a jacketed 10 ml organ bath. A 60 min. equilibration period was allowed before commencing each experiment. The response to 1×10^−7 M PGF2α was determined at the beginning of each experiment as a reference. After complete washout, and return to baseline tension, tissues were allowed to re-equilibrate for 30 min. Antagonist or vehicle were then added. […] Activity of test compounds was determined as contractile responses and expressed relative to the reference standard 1×10^−7 M PGF2α.

[2] = tested on: cat iris sphincter (prostamide F2α response); test: Cat iris sphincter contraction: antagonism of prostamide F2α response; conditions: isolated cat iris sphincter, contractile response relative to 1×10^−7 M PGF2α, 30 min antagonist incubation; FIG. 1, FIG. 2
Experimental: as §1, §2, §3

[3] = tested on: cat iris sphincter (prostamide D2 response); test: Cat iris sphincter contraction: antagonism of prostamide D2 response; conditions: isolated cat iris sphincter, contractile response relative to 1×10^−7 M PGF2α, 30 min antagonist incubation; FIG. 3
Experimental: as §1, §2, §3

[4] = tested on: cat iris sphincter (prostamide E2 response); test: Cat iris sphincter contraction: antagonism of prostamide E2 response; conditions: isolated cat iris sphincter, contractile response relative to 1×10^−7 M PGF2α, 30 min antagonist incubation; FIG. 4
Experimental: as §1, §2, §3

[5] = tested on: cat iris sphincter (PGD2 response); test: Cat iris sphincter contraction: effect on PGD2 response; conditions: isolated cat iris sphincter, contractile response relative to 1×10^−7 M PGF2α, 30 min antagonist incubation; FIG. 3
Experimental: as §1, §2, §3

[6] = tested on: cat iris sphincter (PGE2 response); test: Cat iris sphincter contraction: effect on PGE2 response; conditions: isolated cat iris sphincter, contractile response relative to 1×10^−7 M PGF2α, 30 min antagonist incubation; FIG. 4
Experimental: as §1, §2, §3

SMILES | effect on response curve of PGF2α [1] | prostamide F2α antagonist activity (effect on response curve of prostamide F2α) [2] | prostamide D2 antagonist activity (effect on response curve of prostamide D2) [3] | prostamide E2 antagonist activity (effect on response curve of prostamide E2) [4] | effect on response curve of PGD2 [5] | effect on response curve of PGE2 [6]
O=C(CCc1ccc(F)cc1CC1C2CCC(O2)C1c1nc(C(=O)NCCCCC2CCCCC2)co1)NCCO (centres unmarked) [Example 2, 2-(3-{5-Fluoro-2-[2-(2-hydroxy-ethycarbamoyl)-ethyl]-benzyl}-7-oxa-bicyclo[2.2.1]hept-2-yl)-oxazole-4-carboxylic acid (4-cyclohexyl-butyl)-amide] | does not effect the response curve | displaces the response curve | – | – | – | –
CCNC(=O)CCc1ccc(F)cc1CC1C2CCC(O2)C1c1nc(C(=O)NCCCCC2CCCCC2)co1 (centres unmarked) [Example 1, 2-{3-[2-(2-Ethylcarbamoyl-ethyl)-5-fluoro-benzyl]-7-oxa-bicyclo[2.2.1]hept-2-yl}-oxazole-4-carboxylic acid (4-cyclohexyl-butyl)-amide] | does not effect the response curve | displaces the response curve | displaces the response curve | displaces the response curve | does not effect the response curve | does not effect the response curve
